Publication PMC6013238, “Development of novel NEMO-binding domain mimetics for inhibiting IKK/NF-κB activation” (PLoS Biology, 2018)
“And” between values parts separate entries of the source, which are not always exact repeats. Equal entries are not always repeated.

Experiments:
[1] = biological target: T1, NEMO/IKKα interaction (Mus musculus, UniProt O88522); test: Co-immunoprecipitation of NEMO and IKKα in Raw 264.7 cells; format: cell-based; settings: 0, 25, 50, 100, 150 μM, 30 min
T1 construct: Co-immunoprecipitation of endogenous IKKβ and NEMO; endogenous in cells; host or cells: Raw 264.7
T1 sequence (O88522 whole entry): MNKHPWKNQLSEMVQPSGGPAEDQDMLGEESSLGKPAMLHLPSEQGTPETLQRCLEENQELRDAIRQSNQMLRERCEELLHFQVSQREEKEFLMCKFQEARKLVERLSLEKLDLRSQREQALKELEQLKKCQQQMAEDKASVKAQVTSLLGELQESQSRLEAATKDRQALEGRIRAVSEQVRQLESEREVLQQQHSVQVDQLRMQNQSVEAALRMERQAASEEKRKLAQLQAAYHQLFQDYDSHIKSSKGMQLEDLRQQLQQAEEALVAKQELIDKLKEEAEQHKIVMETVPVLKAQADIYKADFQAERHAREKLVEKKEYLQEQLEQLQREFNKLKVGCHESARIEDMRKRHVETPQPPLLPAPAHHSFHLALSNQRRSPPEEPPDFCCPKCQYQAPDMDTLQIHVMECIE
Procedure: To determine whether the novel NBD mimetics target the NEMO-IKKβ interaction in vivo, co-immunoprecipitations were performed using extracts from Raw 264.7 macrophages (Fig 5A). […] No interaction between NEMO and TNF receptor-associated factor 2 (TRAF2) or IκBα was observed under these conditions. […] The levels of phosphorylated IKK complex, IκBα, and p65 in response to TNF-α and LPS were all reduced by SR12343 (Fig 5D & 5E). […] However, there were no changes in the levels of phospho-c-Jun N-terminal kinase (p-JNK), p-p38MAPK, total JNK, and p38MAPK by treatment with SR12343 (150 μM) in response to TNF-α or LPS stimulation (Fig 5G & 5H). […]
(A) Co-IP analysis detecting the IKKβ/NEMO interaction. […] NEMO-binding products were then analyzed for levels of IKKβ, IKKα, TRAF2, and IκBα (negative control), and levels of NEMO were used as a loading control (left panel). […] The levels of IKKβ-FLAG binding to GST-NEMO were determined by western blot analysis with GST-NEMO used as a loading control. […] Cell lysates were analyzed for activity of the IKK/NF-κB signaling pathway including activation of IKK complex, IκBα, and p65. […] Cell lysates were harvested and analyzed for activation of noncanonical NF-κB signaling, the processing of p100 to p52. […]

[2] = test system: HEK293 cells; settings: Fig 2D; 100 μM, 24 h
Procedure: (A) HEK293 cells stably expressing NF-κB luciferase reporter were pretreated with indicated small molecules at 100 μM for 30 min, followed by stimulation with TNF-α (10 ng/ml) for 3 h. Luciferase activity was normalized to untreated stimulated control cells. […] (B) The dose-dependent response of ZINC12909780 was tested by NF-κB luciferase assay in HEK293 cells. Three independent experiments were performed, and data shown represent mean +/− SD. […] (D) HEK293 cells were cultured in the presence of 100 μM of indicated derivatives for 24 h, and cell survival was determined by MTT assay. Cell viability was calculated by normalizing to untreated cells. (E) Dose-dependent inhibitory effects were determined for ZINC5 at 0, 25, 50, and 100 μM by using NF-κB luciferase assay. (F) HEK293 were cultivated in the presence of ZINC5 at listed concentrations for 24 h, and cell survival was assessed by MTT assay. Data represent the mean +/− SD from 4–5 independent experiments. *P < 0.05; **P < 0.01; ***P < 0.001. Underlying data can be found in S1 Data. HEK293, human embryonic kidney 293 cells; MTT, 3-(4,5-dimethylthiazol-2-yl)-2,5-dephenyltetrazolium bromide colormetric assay for assessing cell metabolic activity; NF-κB, nuclear factor κB; TNF-α; tumor necrosis factor α; SD, standard deviation.
HEK293 cells were grown in a 96-well plate at 3 × 10^4 cells/well in triplicate and treated with DMSO or listed small molecules at indicated concentrations for 24 h. Cell survival was determined by adding 20 μl of 5 mg/ml MTT (thiazolyl blue tetrazolium bromide) to each well, followed by incubation in 37 °C for 3 h. Media were removed, and purple formazan was dissolved in 100 uL of DMSO. Absorbance was measured at 590 nm on a microplate reader (PerkinElmer, Waltham, MA). Cell viability was calculated by normalizing values to untreated controls.

## O=C(CNc1ccc(Cl)cn1)NCCc1cccc(Br)c1 [SR12343]
[1]
  NEMO/IKKα binding (Co-IP): only a marginal effect

## O=C(COC(=O)Cc1ccccc1F)Nc1ccc(Cl)cn1 [ZINC5]
[2]
  Cell viability normalized to untreated cells (MTT): 95 and 80 and 84 and 81
